The source of these data is patent US10538497B2, “Compounds as indoleamine 2,3-dioxygenase inhibitors” (Merck Sharp & Dohme Corp., priority 2015, dated 2020).

The target in test [1] is T1, IDO1 (Homo sapiens (Human), UniProt P14902). Put plainly: IDO1 Cellular Assay in Frozen HEK293 Cells Transiently Transfected with Human IDO1. Conditions: read-out: IDO1 HEK293 Cell Assay, IC50. In kind it is cell-based. The procedure:
IDO1 Cellular Assay in Frozen HEK293 Cells Transiently Transfected with Human IDO1
HEK293 cells were cultured in complete HEK293 culture medium (90% DMEM, 10% heat-inactivated fetal bovine serum). When reaching sub-confluent, the cells were trypsinized and neutralized with complete medium. […] Flag-IDO1 plasmid was added to the cell suspension at a concentration of 100 μg/mL. The cell-plasmid solutions were transferred to the OC-400 processing assembly (Maxcyte), 400 l/unit and the units were placed in a Maxcyte instrument to carry out flow electroporation for transfection. The cells were then transferred to a sterile 24-well cell culture plate to recover for 20-30 min at 37° C. in an incubator with 5% CO2.
Frozen HEK293/IDO1 and HEK293 WT cells were thawed and transferred into HEK293 assay medium (99% complete HEK293 culture medium, 1% Pen/Strep) with 20 mL medium/vial of cells. The cells were spun down at 250 g in a table top centrifuge for 5 min and suspended in same volume of HEK293 assay medium. […] Sterile L-tryptophan were added to the cells with final concentration of 300 μM.
HEK293/IDO1 and HEK293 WT cells were dispensed to the respective wells of 384-well assay plates containing the compounds. The plates were incubated for about 28-30 h at a 37° C., 5% CO2 incubator. […] The plates were centrifuged for 1 min at 200×g. The resulting fluorescence was measured in a Spectramax plate reader (Molecular Devices) with a 400 nm excitation filter and a 510 nm emission filter.

Test [2] deals with T1, IDO1. Put plainly: IDO1 Enzyme Assay. Conditions: HIS-tagged recombinant IDO1, 40 nM.
Test [3] addresses T1, IDO1. In words: IDO1 Cellular Assay in Hela Cells Stimulated with IFNγ. In kind it is cell-based. The settings on record: Hela cells stimulated with IFNγ 100 ng/mL; read-out: IDO1 HELA Cell Assay, IC50. How it is done:
IDO1 Cellular Assay in Hela Cells Stimulated with IFNγ
Hela cells were cultured in complete Hela culture medium (90% EMEM, 10% heat-inactivated fetal bovine serum) and expanded to about 1×10^9 cells. The cells were then collected and frozen down at 10×10^6 cells/vial in 1 mL frozen medium (90% complete Hela culture medium, 10% DMSO)
Frozen Hela cells were thawed and transferred into Hela assay medium (99% complete Hela culture medium, 1% Pen/Strep) with 20 mL medium/vial of cells. The cells were spun down at 250 g in a table top centrifuge for 5 min and suspended in same volume of Hela assay medium. The cells were then counted and adjusted to a density of 2×10^5 cells/ml in Hela assay medium. Sterile L-tryptophan were added to the cells with final concentration of 300 uM L-tryptophan. A small aliquot (2 mL/plate) of Hela cells were set aside and were not treated with IFNγ, to serve as the Max-E control. The rest of Hela cells were added with sterile IFNγ (Cat #285-IF, R & D systems) with a final concentration of 100 ng/mL.
Hela cells with and without IFNγ were dispensed to the respective wells of 384-well assay plates containing the compounds. The plates were incubated for about 48 hours at a 37° C., 5% CO2 incubator. […] The plates were centrifuged for 1 min at 200×g. The resulting fluorescence was measured in a Spectramax plate reader (Molecular Devices) with a 400 nm excitation filter and a 510 nm emission filter.

[4] abbreviates: HEK293 cells transiently transfected with human IDO1.
[5] abbreviates: read-out: IDO1 Enzyme Assay, IC50.

What is called IC50 is the concentration needed to halve the response being measured.

T1 sequence (P14902 whole entry): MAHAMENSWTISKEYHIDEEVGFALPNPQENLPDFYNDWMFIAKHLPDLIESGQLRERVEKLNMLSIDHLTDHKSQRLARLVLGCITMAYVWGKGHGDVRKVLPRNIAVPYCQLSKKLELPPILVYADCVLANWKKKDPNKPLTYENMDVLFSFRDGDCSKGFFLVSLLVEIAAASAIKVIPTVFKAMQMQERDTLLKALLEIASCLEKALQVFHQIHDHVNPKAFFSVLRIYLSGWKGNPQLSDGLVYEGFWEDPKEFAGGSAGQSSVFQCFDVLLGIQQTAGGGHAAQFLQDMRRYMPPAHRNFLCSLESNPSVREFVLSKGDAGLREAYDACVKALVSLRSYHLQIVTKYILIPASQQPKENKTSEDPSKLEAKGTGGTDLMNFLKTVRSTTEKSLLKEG

As for `OCC(O)CSc1nonc1/C(=N/O)Nc1ccc(F)c(Br)c1` (single isomer, unassigned) [Example 63, N-(3-bromo-4-fluorophenyl)-4-[(2,3-dihydroxypropyl)sulfanyl]-N′-hydroxy-1,2,5-oxadiazole-3-carboximidamide], the IC50 came out at 53.2 nM in test [1] (setting [4]); 46.1 nM in test [2] (IDO1 Enzyme Assay, IC50, nM); 37.5 nM in test [3].
The corresponding values for `OCC(O)CSc1nonc1/C(=N/O)Nc1ccc(F)c(Br)c1` (single isomer, unassigned) [Example 64, N-(3-bromo-4-fluorophenyl)-4-[(2,3-dihydroxypropyl)sulfanyl]-N′-hydroxy-1,2,5-oxadiazole-3-carboximidamide] are 75.9 nM, 49.1 nM and 44.1 nM.
Turning to `NCCSc1nonc1/C(=N/O)Nc1ccc(F)c(Br)c1` [Example 2, (Z)-2-((4-(N-(3-Bromo-4-fluorophenyl)-N′-hydroxycarbamimidoyl)-1,2,5-oxadiazol-3-yl)thio)ethan-1-aminium chloride], the 50% inhibitory concentration (IC50) in test [1] (setting [4]) was 216 nM; in test [2] (setting [5]), 48.1 nM; in test [3], 77.5 nM.
In the same order, the values of `NS(=O)(=O)NCCSc1nonc1/C(=N/O)Nc1ccc(F)c(Br)c1` [Example 3, (Z)—N-(3-Bromo-4-fluorophenyl)-N′-hydroxy-4-((2-(sulfamoylamino)ethyl)thio)-1,2,5-oxadiazole-3-carboximidamide] are 56.9 nM, 79.5 nM and 72.4 nM.
In the same order, the values of `O=P(O)(O)CCSc1nonc1/C(=N/O)Nc1ccc(F)c(Br)c1` [Example 8, (Z)-(2-((4-(N-(3-Bromo-4-fluorophenyl)-N′-hydroxycarbamimidoyl)-1,2,5-oxadiazol-3-yl)thio)ethyl)phosphonic acid] are 6360 nM, 107 nM and 7950 nM.
The corresponding values for `CC(C)OC(=O)OCOP(=O)(O)CCSc1nonc1/C(=N/O)Nc1ccc(F)c(Br)c1` [Example 9, (Z)-(((2-((4-(N-(3-bromo-4-fluorophenyl)-N′-hydroxycarbamimidoyl)-1,2,5-oxadiazol-3-yl)thio)ethyl)(hydroxy)phosphoryl)oxy)methyl isopropyl carbonate] are 5120 nM, 197 nM and 5060 nM.
For `CC(C)OC(=O)OCOP(=O)(CCSc1nonc1/C(=N/O)Nc1ccc(F)c(Br)c1)OCOC(=O)OC(C)C` [Example 10, (Z)-(((2-((4-(N-(3-bromo-4-fluorophenyl)-N′-hydroxycarbamimidoyl)-1,2,5-oxadiazol-3-yl)thio)ethyl)phosphoryl)bis(oxy))bis(methylene) diisopropyl bis(carbonate)], the concentration for half-maximal inhibition (IC50) in test [1] (setting [4]) is greater than 10000 nM; in test [2] (setting [5]), 136 nM; in test [3], 4160 nM.
With `CC(=O)NCCSc1nonc1/C(=N/O)Nc1ccc(F)c(Br)c1` [Example 11, (Z)—N-(2-((4-(N-(3-Bromo-4-fluorophenyl)-N′-hydroxycarbamimidoyl)-1,2,5-oxadiazol-3-yl)thio)ethyl)acetamide], the figures for the concentration for half-maximal inhibition (IC50) in test [1] (setting [4]), in test [2] (setting [5]) and in test [3] were 22.2 nM, 27.7 nM and 9.3 nM, respectively.
In the same order, the values of `CCOC(=O)CCSc1nonc1/C(=N/O)Nc1ccc(F)c(Br)c1` [Example 13, Ethyl (Z)-3-((4-(N-(3-bromo-4-fluorophenyl)-N′-hydroxycarbamimidoyl)-1,2,5-oxadiazol-3-yl)thio)propanoate] are 4490 nM, 86.1 nM and 6120 nM.
The corresponding values for `O=C(O)CSc1nonc1/C(=N/O)Nc1ccc(F)c(Br)c1` [Example 15, (Z)-2-((4-(N-(3-bromo-4-fluorophenyl)-N′-hydroxycarbamimidoyl)-1,2,5-oxadiazol-3-yl)thio)acetic acid] are greater than 10000 nM, 105 nM and greater than 10000 nM.
In the same order, the values of `CC(O)CSc1nonc1/C(=N/O)Nc1ccc(F)c(Br)c1` (centres unmarked) [Example 18, (Z)-N-(3-bromo-4-fluorophenyl)-N′-hydroxy-4-((2-hydroxypropyl)thio)-1,2,5-oxadiazole-3-carboximidamide] are 64.2 nM, 58.4 nM and 87.9 nM.
With `OCCCSc1nonc1/C(=N/O)Nc1ccc(F)c(Br)c1` [Example 19, (Z)-N-(3-bromo-4-fluorophenyl)-N′-hydroxy-4-((3-hydroxypropyl)thio)-1,2,5-oxadiazole-3-carboximidamide], the half-inhibitory concentration (IC50) in test [1] (setting [4]) stood at 39.7 nM; in test [2] (setting [5]) it was 71.9 nM; in test [3], 39.7 nM.
Take `OCCCCSc1nonc1/C(=N/O)Nc1ccc(F)c(Br)c1` [Example 20, (Z)-N-(3-bromo-4-fluorophenyl)-N′-hydroxy-4-((4-hydroxybutyl)thio)-1,2,5-oxadiazole-3-carboximidamide]: the values for the half-inhibitory concentration (IC50) in test [1] (setting [4]), in test [2] (setting [5]) and in test [3] were 56 nM, 67.7 nM and 65.3 nM, respectively.
As to `COC(=O)C1(Sc2nonc2/C(=N/O)Nc2ccc(F)c(Br)c2)CCC1` [Example 21, Methyl (Z)-1-((4-(N-(3-bromo-4-fluorophenyl)-N′-hydroxycarbamimidoyl)-1,2,5-oxadiazol-3-yl)thio)cyclobutane-1-carboxylate], the values for the 50% inhibitory concentration (IC50) in test [1] (setting [4]) and in test [3] were 524 nM and 242 nM, respectively.
In the same order, the values of `CNC(=O)C1(CSc2nonc2/C(=N/O)Nc2ccc(F)c(Br)c2)CC1` [Example 69, 1-[({4-[N-(3-bromo-4-fluorophenyl)-N′-hydroxycarbamimidoyl]-1,2,5-oxadiazol-3-yl}sulfanyl)methyl]-N-methylcyclopropanecarboxamide] are 103 nM and 90.8 nM.
With `O=P(O)(CCCSc1nonc1/C(=N/O)Nc1ccc(F)c(Br)c1)Oc1ccccc1` [Example 118, phenyl hydrogen [3-({4-[N-(3-bromo-4-fluorophenyl)-N′-hydroxycarbamimidoyl]-1,2,5-oxadiazol-3-yl}sulfanyl)propyl]phosphonate], the concentration for half-maximal inhibition (IC50) worked out at 8150 nM in test [1] and 34.1 nM in test [2] (setting [5]).
The corresponding values for `CN(C)P(=O)(CCSc1nonc1/C(=N/O)Nc1ccc(F)c(Br)c1)N(C)C` [Example 139, 4-({2-[bis(dimethylamino)phosphoryl]ethyl}sulfanyl)-N-(3-bromo-4-fluorophenyl)-N′-hydroxy-1,2,5-oxadiazole-3-carboximidamide] are 551 nM and 117 nM.
For `CC(=O)N[C@H](C)CSc1nonc1/C(=N/O)Nc1ccc(F)c(C#N)c1` [Example 179, N-[(1R)-2-({4-[N-(3-cyano-4-fluorophenyl)-N′-hydroxycarbamimidoyl]-1,2,5-oxadiazol-3-yl}sulfanyl)-1-methylethyl]acetamide], the values for the half-inhibitory concentration (IC50) in test [1] (setting [4]) and in test [2] (setting [5]) were 686 nM and 218 nM, respectively.
The corresponding values for `O=c1c(NCCSc2nsnc2/C(=N/O)Nc2ccc(F)c(Br)c2)c(NCC2CC2)c1=O` [Example 210, N-(3-bromo-4-fluorophenyl)-4-{[2-({2-[(cyclopropylmethyl)amino]-3,4-dioxocyclobut-1-en-1-yl}amino)ethyl]sulfanyl}-N′-hydroxy-1,2,5-thiadiazole-3-carboximidamide] are 1410 nM and 166 nM.
The corresponding values for `O=c1c(NCCSc2nsnc2/C(=N/O)Nc2ccc(F)c(Br)c2)c(NC2CC2)c1=O` [Example 211, N-(3-bromo-4-fluorophenyl)-4-[(2-{[2-(cyclopropylamino)-3,4-dioxocyclobut-1-en-1-yl]amino}ethyl)sulfanyl]-N′-hydroxy-1,2,5-thiadiazole-3-carboximidamide] are 1320 nM and 297 nM.
